# What was measured:
# Cbl-b [1] = biological target: T1, Cbl-b (Homo sapiens, UniProt Q13191); assay: Cbl-b inhibition assay (Cbl-b activity assay, FRET, Biological Example 1; 100 mM NaCl, 60 nM Src kinase); assay type: biochemical; conditions: upper bound stated in text lists; read-out: IC50 values in the Cbl-b inhibition assay of Biological Example 1
# How it was run: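 Inhibition is read as loss of FRET signal. The signal arises when Src-phosphorylated, N-terminal biotinylated Avi-Cbl-b (captured by streptavidin-terbium) binds UbcH5B carrying covalently linked Bodipy-Fluorescein-tagged ubiquitin.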
# Cbl-b (residues 36-427) = Cbl-b (residues 36-427) (Homo sapiens, UniProt Q13191); assay: Cbl-b binding assay (SPR, Biacore T200); conditions: 20° C., 1:1 binding model
# How it was run: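 Steps: capture protein on NeutrAvidin surface; inject compound dilutions (8 or 10 points from 100 or 50 μM) 50 s; allow 90-180 s dissociation; regenerate 20 s with 0.3 M NaCl. Runs at 20° C in HEPES pH 7.5/100 mM NaCl/2% DMSO; 1:1 fitting.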
# Cbl-b [2] = biological target: T1, Cbl-b; assay: Cbl-b activity assay (Cbl-b inhibition assay), TR-FRET of Cbl-b interaction with UbcH5B-Ub; assay type: biochemical
# How it was run: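 UbcH5B (C85K) conjugated to N-terminally Bodipy-Fluorescein-labeled ubiquitin served as the fluorescent partner. After compound preincubation, Src kinase (60 nM) with 1 mM ATP and 5 mM MgCl2 (final) was added for 1.5 h, followed by a further 1 h incubation. Some values were obtained with 50 mM NaCl and 30 nM Src.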
# [3] = assay buffer with 100 mM NaCl, 60 nM Src kinase, read-out: Cbl-b activity IC50
# T1 sequence (Q13191 36-427): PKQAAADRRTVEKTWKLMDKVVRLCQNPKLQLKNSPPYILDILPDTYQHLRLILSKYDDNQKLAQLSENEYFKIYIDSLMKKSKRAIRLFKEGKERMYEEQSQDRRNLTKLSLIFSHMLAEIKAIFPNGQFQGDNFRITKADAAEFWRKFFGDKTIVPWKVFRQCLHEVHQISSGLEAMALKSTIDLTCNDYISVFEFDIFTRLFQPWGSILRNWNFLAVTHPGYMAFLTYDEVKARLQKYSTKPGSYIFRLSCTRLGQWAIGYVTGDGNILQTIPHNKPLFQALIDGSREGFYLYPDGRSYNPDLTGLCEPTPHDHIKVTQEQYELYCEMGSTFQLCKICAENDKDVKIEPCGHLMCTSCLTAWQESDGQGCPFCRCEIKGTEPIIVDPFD
# Sequence of Cbl-b (residues 36-427) (Q13191 36-427): as above
Structure (SMILES),IC50 (Cbl-b [1]) [µM],Kd (Cbl-b (residues 36-427)) [µM],IC50 (Cbl-b [2]; [3]) [µM],"IC50 (Cbl-b [2]; * assay buffer containing 50 mM NaCl instead of 100 mM NaCl and 30 nM Src kinase instead of 60 nM, read-out: Cbl-b activity IC50 (μM)*) [µM]"
"C[C@H](Cc1nncn1C)c1cccc(NC(=O)c2cc(C(=O)N3CCC(O)C3(C)C)ccn2)c1 (stereo partly drawn) [Compound 231, 4-(3-hydroxy-2,2-dimethylpyrrolidine-1-carbonyl)-N-(3-((R)-1-(4-methyl-4H-1,2,4-triazol-3-yl)propan-2-yl)phenyl)picolinamide]",≤ 10,0.1 to 0.3,1 to 3,–
"C[C@H](Sc1nncn1C)c1ccnc(NC(=O)c2ccc3cccc(F)c3n2)c1 [Compound 107, (S)-8-fluoro-N-(4-(1-((4-methyl-4H-1,2,4-triazol-3-yl)thio)ethyl)pyridin-2-yl)quinoline-2-carboxamide]",≤ 10,3 to 10,1 to 3,–
"C[C@H](Sc1nncn1C)c1ccnc(NC(=O)c2nc3ccccc3s2)c1 [Compound 121, N-[4-[(1S)-1-[(4-methyl-1,2,4-triazol-3-yl)sulfanyl]ethyl]-2-pyridyl]-1,3-benzothiazole-2-carboxamide]",≤ 10,3 to 10,3 to 10,–
"CC(O)C1CN(C(=O)c2ccnc(C(=O)Nc3cccc([C@H](C)Cc4nncn4C)c3)c2)C1 (stereo partly drawn) [Compound 241, 4-(3-(1-hydroxyethyl)azetidine-1-carbonyl)-N-(3-((R)-1-(4-methyl-4H-1,2,4-triazol-3-yl)propan-2-yl)phenyl)picolinamide]",≤ 10,< 0.1,3 to 10,–
"C[C@H](Cc1nncn1C)c1cccc(NC(=O)c2cc(C(=O)N3C[C@@H]4[C@@H](O)[C@@H]4C3)ccn2)c1 [Compound 234, 4-[(1R,5S,6R)-6-hydroxy-3-azabicyclo[3.1.0]hexane-3-carbonyl]-N-[3-[(2R)-1-(4-methyl-4H-1,2,4-triazol-3-yl)propan-2-yl]phenyl]pyridine-2-carboxamide]",≤ 10,1 to 3,1 to 3,–
"C[C@H](Sc1nncn1C)c1cccc(NC(=O)c2cc(C(=O)N3CCC[C@H](O)C3)ccn2)c1 [Compound 150, 4-((S)-3-hydroxypiperidine-1-carbonyl)-N-(3-((S)-1-((4-methyl-4H-1,2,4-triazol-3-yl)thio)ethyl)phenyl)picolinamide]",≤ 10,> 10,3 to 10,–
"C[C@H](Cc1nncn1C)c1cccc(NC(=O)c2cc(C(=O)N3CC[C@H](C#N)C3)ccn2)c1 [Compound 236, 4-[(3S)-3-cyanopyrrolidine-1-carbonyl]-N-[3-[(2R)-1-(4-methyl-4H-1,2,4-triazol-3-yl)propan-2-yl]phenyl]pyridine-2-carboxamide]",≤ 10,1 to 3,1 to 3,–
"C[C@H](Sc1nncn1C)c1cccc(NC(=O)c2cc(C(=O)N3CCC[C@@H](O)C3)ccn2)c1 [Compound 149, 4-((R)-3-hydroxypiperidine-1-carbonyl)-N-(3-((S)-1-((4-methyl-4H-1,2,4-triazol-3-yl)thio)ethyl)phenyl)picolinamide]",≤ 10,> 10,3 to 10,–
"C[C@H](Sc1nncn1C)c1cccc(NC(=O)c2cc(C(=O)N3CC[C@@H](N)C3)ccn2)c1 [Compound 146, 4-((R)-3-aminopyrrolidine-1-carbonyl)-N-(3-((S)-1-((4-methyl-4H-1,2,4-triazol-3-yl)thio)ethyl)phenyl)picolinamide]",≤ 10,3 to 10,3 to 10,–
"C[C@H](Sc1nncn1C)c1ccc(F)c(NC(=O)c2ccc3ccccc3n2)c1 [Compound 96a, (S)-N-(2-fluoro-5-(1-((4-methyl-4H-1,2,4-triazol-3-yl)thio)ethyl)phenyl)quinoline-2-carboxamide]",≤ 10,1 to 3,1 to 3,–
"C[C@H](Cc1nncn1C)c1ccnc(NC(=O)c2ccc3ccccc3n2)c1 [Compound 303, (R)-N-(4-(1-(4-methyl-4H-1,2,4-triazol-3-yl)propan-2-yl)pyridin-2-yl)quinoline-2-carboxamide]",≤ 1,3 to 10,0.301 to 1,–
"COc1cc(C(F)(F)F)cc(C(=O)Nc2cccc([C@H](C)Sc3nncn3C)c2)n1 [Compound 73, (S)-6-methoxy-N-(3-(1-((4-methyl-4H-1,2,4-triazol-3-yl)thio)ethyl)phenyl)-4-(trifluoromethyl)picolinamide]",≤ 10,3 to 10,1 to 3,–
"C[C@H](Sc1nncn1C)c1cccc(NC(=O)c2cc(C(=O)N3CC[C@H](N)C3)ccn2)c1 [Compound 147, 4-((S)-3-aminopyrrolidine-1-carbonyl)-N-(3-((S)-1-(4-methyl-4H-1,2,4-triazol-3-ylthio)ethyl)phenyl)picolinamide]",≤ 10,3 to 10,3 to 10,–
"C[C@H](Sc1nncn1C)c1ccc(F)c(N2Cc3c(cccc3C(F)(F)F)C2=O)c1 [Compound 169, 2-[2-fluoro-5-[(1S)-1-[(4-methyl-1,2,4-triazol-3-yl)sulfanyl]ethyl]phenyl]-4-(trifluoromethyl)isoindolin-1-one]",≤ 10,1 to 3,1 to 3,–
"C[C@H](Sc1nncn1C)c1ccnc(NC(=O)c2cccc(OC(F)(F)F)n2)c1 [Compound 122, (S)-N-(4-(1-((4-methyl-4H-1,2,4-triazol-3-yl)thio)ethyl)pyridin-2-yl)-6-(trifluoromethoxy)picolinamide]",≤ 10,1 to 3,1 to 3,–
"CN[C@@H]1CCN(C(=O)c2ccnc(C(=O)Nc3cccc([C@H](C)Cc4nncn4C)c3)c2)C1 [Compound 249, N-(3-((R)-1-(4-methyl-4H-1,2,4-triazol-3-yl)propan-2-yl)phenyl)-4-((R)-3-(methylamino)pyrrolidine-1-carbonyl)picolinamide]",≤ 10,1 to 3,1 to 3,–
"C[C@H](Sc1nncn1C)c1cccc(NC(=O)c2cc(C(F)(F)F)c(Cl)cn2)c1 [Compound 40, (S)-5-Chloro-N-(3-(1-((4-methyl-4H-1,2,4-triazol-3-yl)thio)ethyl)phenyl)-4-(trifluoromethyl)picolinamide]",≤ 10,3 to 10,1 to 3,3 to 10
"C[C@H](Cc1nncn1C)c1cccc(NC(=O)c2cc3ccccc3cn2)c1 [Compound 182, (R)-N-(3-(1-(4-methyl-4H-1,2,4-triazol-3-yl)propan-2-yl)phenyl)isoquinoline-3-carboxamide]",≤ 0.5,0.301 to 1,0.301 to 1,–
"C[C@H](Sc1nncn1C)c1cccc(NC(=O)c2cc(C(=O)N3C[C@H](O)C[C@H]3C)ccn2)c1 [Compound 153, 4-((2R,4R)-4-hydroxy-2-methylpyrrolidine-1-carbonyl)-N-(3-((S)-1-((4-methyl-4H-1,2,4-triazol-3-yl)thio)ethyl)phenyl)picolinamide]",≤ 10,> 10,3 to 10,–
"CC(c1cccc(N2Cc3c(cccc3C(F)(F)F)C2=O)c1)C(F)(F)c1nncn1C (stereo not shown) [Compound 294, 2-(3-(1,1-difluoro-1-(4-methyl-4H-1,2,4-triazol-3-yl)propan-2-yl)phenyl)-4-(trifluoromethyl)isoindolin-1-one]",≤ 0.5,< 0.1,0.301 to 1,–
"C[C@H](Sc1nncn1C)c1ccnc(NC(=O)c2cccc(S(F)(F)(F)(F)F)c2)c1 [Compound 116, N-[4-[(1S)-1-[(4-methyl-1,2,4-triazol-3-yl)sulfanyl]ethyl]-2-pyridyl]-3-(pentafluoro-λ^6-sulfanyl)benzamide]",≤ 10,3 to 10,3 to 10,–
"C[C@@H](Cc1nncn1C)c1cccc(NC(=O)c2cccc(C(F)(F)F)n2)c1 [Compound 183b, (S)-N-(3-(1-(4-methyl-4H-1,2,4-triazol-3-yl)propan-2-yl)phenyl)-6-(trifluoromethyl)picolinamide]",≤ 10,3 to 10,0.1 to 0.3,–
"C[C@H](Cc1nncn1C)c1cccc(NC(=O)c2cc(C(=O)N3CC(O)C(C)(C)C3)ccn2)c1 (stereo partly drawn) [Compound 239, 4-(4-hydroxy-3,3-dimethylpyrrolidine-1-carbonyl)-N-(3-((R)-1-(4-methyl-4H-1,2,4-triazol-3-yl)propan-2-yl)phenyl)picolinamide]",≤ 10,0.1 to 0.3,1 to 3,–
"C[C@H](Cc1nncn1C)c1cccc(NC(=O)c2cc(C(=O)N3CCC(C)(O)CC3)ccn2)c1 [Compound 227, (R)-4-(4-hydroxy-4-methylpiperidine-1-carbonyl)-N-(3-(1-(4-methyl-4H-1,2,4-triazol-3-yl)propan-2-yl)phenyl)picolinamide]",≤ 10,3 to 10,1 to 3,–
"CN[C@H]1CCN(C(=O)c2ccnc(C(=O)Nc3cccc([C@H](C)Cc4nncn4C)c3)c2)C1 [Compound 250, N-[3-[(2R)-1-(4-methyl-4H-1,2,4-triazol-3-yl)propan-2-yl]phenyl]-4-[(3S)-3-(methylamino)pyrrolidine-1-carbonyl]pyridine-2-carboxamide]",≤ 10,1 to 3,1 to 3,–
